Reference: PMC9965520, “An Efficient Peptidomics Screening for Exogenous Substrates and Inhibitory Peptides of the Dipeptidase ACE from Milk Hydrolysate” (Pharmaceutics, 2023)
No end group written: not given here.

These substances were tested against T1, ACE (Oryctolagus cuniculus, UniProt P12822) (assay: ACE pre-incubation of milk hydrolysate peptide libraries, stable-isotope dimethyl labeling and LC-MS/MS (D/H ratio)). Settings: milk hydrolysate peptide library (<3 kDa); ACE-treated (0.05 mU/μL ACE, borate buffer, 37 °C, 3 h: 1.5 h static + 1.5 h 200 rpm; D-labeled) versus untreated (H-labeled) peptide; intensity ratio in LC-MS; <1 = hydrolysed by ACE.
T1 sequence (P12822 34-1310): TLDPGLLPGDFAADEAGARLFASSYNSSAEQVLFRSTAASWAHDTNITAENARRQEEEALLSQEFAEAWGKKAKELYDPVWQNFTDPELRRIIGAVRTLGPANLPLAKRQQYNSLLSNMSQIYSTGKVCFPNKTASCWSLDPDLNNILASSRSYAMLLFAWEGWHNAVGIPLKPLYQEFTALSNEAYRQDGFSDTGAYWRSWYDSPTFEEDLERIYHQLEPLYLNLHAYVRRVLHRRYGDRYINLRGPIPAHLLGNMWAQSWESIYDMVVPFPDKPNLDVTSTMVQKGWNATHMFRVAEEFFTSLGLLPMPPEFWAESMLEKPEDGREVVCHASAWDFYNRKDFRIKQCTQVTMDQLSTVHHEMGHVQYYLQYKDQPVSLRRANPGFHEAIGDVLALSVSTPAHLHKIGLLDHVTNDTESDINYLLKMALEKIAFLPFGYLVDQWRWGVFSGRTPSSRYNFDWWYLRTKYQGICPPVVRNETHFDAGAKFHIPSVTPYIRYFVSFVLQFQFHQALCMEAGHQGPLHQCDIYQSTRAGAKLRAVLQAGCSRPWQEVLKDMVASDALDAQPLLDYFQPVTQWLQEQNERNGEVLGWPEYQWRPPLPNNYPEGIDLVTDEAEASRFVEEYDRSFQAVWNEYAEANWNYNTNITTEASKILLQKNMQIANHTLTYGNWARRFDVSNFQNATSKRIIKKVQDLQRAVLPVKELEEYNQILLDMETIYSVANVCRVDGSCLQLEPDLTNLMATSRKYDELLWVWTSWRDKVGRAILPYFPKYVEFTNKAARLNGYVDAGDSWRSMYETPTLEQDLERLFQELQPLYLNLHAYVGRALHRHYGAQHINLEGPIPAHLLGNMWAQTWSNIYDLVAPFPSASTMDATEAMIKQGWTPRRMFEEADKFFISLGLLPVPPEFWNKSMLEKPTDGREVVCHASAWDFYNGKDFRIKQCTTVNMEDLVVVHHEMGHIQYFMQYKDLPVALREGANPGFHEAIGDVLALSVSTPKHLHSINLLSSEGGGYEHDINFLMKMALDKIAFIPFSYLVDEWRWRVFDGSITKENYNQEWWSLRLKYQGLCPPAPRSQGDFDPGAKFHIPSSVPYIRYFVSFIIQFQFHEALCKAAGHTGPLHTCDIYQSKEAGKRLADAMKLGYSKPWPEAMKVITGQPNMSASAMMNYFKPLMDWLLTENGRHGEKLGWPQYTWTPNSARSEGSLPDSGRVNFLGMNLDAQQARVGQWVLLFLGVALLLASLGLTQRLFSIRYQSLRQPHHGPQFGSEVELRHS
Type: in vitro ADME, rabbit
Set-up: ACE (EC 3.4.15.1, 1 unit) from rabbit lungs; purchased Sigma Chemical Co. (St. Louis, MO, USA); host or cells: rabbit lungs (tissue-derived enzyme)
Method: The peptide libraries (200 μg) dissolved in borate buffer were equally divided into two parts, one was without any treatment (control group); the other part (experimental group) was incubated with 0.05 mU/μL ACE at 37℃ for 1.5 h statically, followed by gentle shaking at 200 rpm for another 1.5 h, and then the ACE reaction was quenched using 60 μL of 1N HCl. After lyophilization, both samples were redissolved in 100 μL of 0.1M sodium acetate and modified using stable-isotope dimethyl labeling according to the previous study with slight modifications. Briefly, the control group (without ACE incubation) had 4 μL of formaldehyde (37% solution in H2O) and 1 M NaBH3CN (10 μL) added to it; the experimental group had 20% formaldehyde-d2 (8 μL) and 1M NaBH3CN (10 μL) added to it. After 1h, 5 μL of ammonia (28% solution in H2O) were added individually to both groups to stop the reaction. The experimental group and the control group were combined and desalted using the PepClean™C18 spin column. The resulting peptide mixture was lyophilized and kept at −20 °C prior to LC-MS/MS analysis. Formaldehyde is known to the state of California to cause cancer; special caution was taken including the use of surgical gloves and a fume hood when formaldehyde was handled.
The combined mixture re-dissolved in 5% ACN containing 0.1% formic acid was separated using an Ultimate 3000 RSLC system (Dionex, Sunnyvale, CA, USA) coupled with a C18 column (Acclaim PepMap RSLC, 75 μm × 150 mm, Thermo Scientific, Waltham, Middlesex, MA, USA) and analyzed with a Thermo Q-ExactiveTM mass spectrometer (Thermo Scientific Inc., Waltham, Middlesex, MA, USA). The elution solution was composed of mobile phase A (0.1% formic acid in water) and B (0.1% formic acid in 95% acetonitrile). The elution gradient was arranged as follows: (i) isocratic elution using 1% B in the first 5.5 min for sample loading, (ii) linear gradient from 1% to 60% B in the next 39.5 min, (iii) linear gradient from 60% to 80% B in the following 10 min, and finally (iv) isocratic elution using 1% solution B for 10 min. The flow rate applied in the LC separation was maintained at 250 µL/min. The separated peptides were analyzed and quantified using Q-ExactiveTM mass spectrometry which was operated in the data-dependent mode and switched automatically between MS and HCD-MS2. A full MS scan was carried out in a 100 and 1500 m/z range, and the 14 ions of the highest intensities were selected for MS/MS scans. The RAW data were converted to the MGF file format followed by database-assisted sequencing with PEAKS DB using PEAKS Studio X (Bioinformatics Solutions Inc., Waterloo, ON, Canada). The parameters used for peptide identification were listed as follows: (1) Database: UniProt_SwissProt (Bos taurus); (2) Enzyme: pepsin, trypsin, α-chymotrypsin, or GI (the combination of these three proteases); (3) Type of enzyme: Unspecific; (4) Instrument: Orbitrap; (5) Parent mass error tolerance: 20 ppm; (6) Fragment mass error tolerance: 0.6 Da; (7) Variable modifications: Dimethyl (K), Dimethyl (N-term), Dimethyl:2H(4) (K), and Dimethyl:2H(4) (N-term) were used for identification and quantitative analysis. The sequence identified through the database was validated by manually matching with the MS/MS spectrum in the raw data. In addition to MS/MS analysis coupled with PEAKS studio, the ACE’s substrate candidates were further confirmed using the synthetic peptides with corresponding sequences by comparison with their LC retention times, m/z values, and MS/MS spectra. The relative abundances of hydrogen (H) and deuterium (D) labeled peptides were quantified based on the peak areas in their corresponding selective ion chromatograms (SIC). The D/H ratio of identified peptide with the same sequence was further examined by their relative signal intensities in MS spectrum. Theoretically, the D/H ratio of the isobaric pair should stay at 1 if the peptide will not react with ACE. […]

| Substance | D/H Ratio |
| --- | --- |
| HLPLPLLQSW [HW-10] | 0.12 |
| LHLPLPLL [LL-8] | 0.74 |
| FFVAPFPEVF [FF-10] | 0.87 |
| YVPLGTQ [YQ-7] | 0.33 |
| LVYPFPGPIHNSL [LL-13] | 0.26 |
| AYFYPELFR [AR-9] | 0.19 |
